The values below come from US11219663B2, “Composition containing cyclic dipeptide and sweetening agent” (SUNTORY HOLDINGS LIMITED, priority 2015, dated 2022).

Where a SMILES comes first, the peptide text is derived from it.

The assay relates to NCI-H716 cells. The assay can be described thus: Active GLP-1 secretion amount of NCI-H716 cells cultured for one hour with the sample (ELISA). The assay is classed as cell-based, Human. Particulars: for Amount of Active GLP-1 (relative amount to control as 100), average value / Amount of active GLP-1, relative value (control regarded as 100), average value: 1 h. From the text: As cyclic dipeptides: cyclo(glycyl-tyrosine) [Cyclo(Gly-Tyr)] (CGY) and cyclo(leucyl-phenylalanine) [Cyclo(Leu-Phe)] (CLF), and chemical synthesized preparations were used. Poly-L-Lysine 96-well plates were obtained from Becton Dickinson (BD). PBS (+), an antibiotic substance, Dulbecco's Modified Eagle's Medium (DMEM) and glucose used herein were obtained from Nacalai Tesque Inc.; sucralose, acesulfame potassium and aspartame from Wako Pure Chemical Industries Ltd.; active GLP-1 ELISA kit from Merck Millipore, Fetal bovine serum (FBS) from Sigma; and Sitagliptin phosphate from SantaCruz Biotechnology. Human intestinal cell strain, NCI-H716 cells used herein were provided by ATCC.
NCI-H716 cells, which were suspended in DMEM culture medium (containing 10% FBS, 2 mM glutamine, 1% antibiotic substance), were seeded in Poly-L-Lysine 96-well plates in an amount of 100 μL for each so as to contain 0.5×10^5 cells/well and cultured in a CO2 incubator (manufactured by ESPEC CORP.) for 48 hours.
Sweetening agent solutions were prepared each by adding a sweetening agent to PBS (+). In the case of glucose, a concentration was set at 3%, sucralose at 0.6%, acesulfame potassium at 0.3%, and aspartame at 0.3%. A cyclic dipeptide was dissolved in DMSO and then added to each of sweetening agent solutions so as to obtain final concentrations shown in Table 1 and Table 2. Note that, all cell addition solutions were prepared such that DMSO (0.1%) and a 10 μM Sitagliptin phosphate were contained.
After the cells were washed once with PBS (+), a reaction solution was added to the cells. One hour later, the solution added was recovered. Thereafter, the amount of active GLP-1 in the solution recovered was measured by using the ELISA kit. Analysis was carried out using relative values to the amount of active GLP-1 (regarded as 100) in a (sample) group to which neither sweetening agent nor cyclic dipeptide were added.
NCI-H716 cells, which were suspended in DMEM culture medium (containing 10% FBS, 2 mM glutamine, 1% antibiotic substance) were seeded in Poly-L-Lysine 96-well plates in an amount of 100 μL for each so as to contain 0.5×10^5 cells/well and cultured in an CO2 incubator (manufactured by ESPEC CORP.) for 48 hours. After the cells were washed with PBS (+), a PBS (+) solution already containing 10 μM Sitagliptin phosphate was controlled such that the final concentration of stevioside or RebA was 0.01%, and the final concentration of Cyclo(Leu-Phe) was 0.02 μg/mL or 2 μg/mL. The PBS (+) solution (100 μL) was individually added to the NCI-H716 cells. One hour later, the solution added was recovered and the amount of active GLP-1 in the solution was measured by the ELISA kit. Analysis was carried out based on relative values to the amount of active GLP-1 (regarded as 100) in a (sample) group to which neither a steviol glycoside not Cyclo(Leu-Phe) were added
The experiment was carried out in accordance with Example 2. A PBS (+) solution already containing 10 μM Sitagliptin phosphate was controlled such that the final concentration of RebD was 0.01%, and the final concentration of Cyclo(Gly-Tyr) was 0.01 μg/mL or 1 μg/mL. The PBS (+) solution (100 μL) was individually added to the NCI-H716 cells.
NCI-H716 cells, which were suspended in DMEM culture medium (containing 10% FBS, 2 mM glutamine, 1% antibiotic substance), were seeded in Poly-L-Lysine 96-well plates in an amount of 100 μL for each so as to add 0.5×10^5 cells/well and cultured in an CO2 incubator (manufactured by ESPEC CORP.) for 48 hours. After the cells were washed with PBS (+), a PBS (+) solution already containing 10 μM Sitagliptin phosphate was controlled such that the final concentration of stevioside, RebA or RebB was 0.001, 0.01 or 0.1%. The PBS (+) solution (100 μL) controlled such that the final concentration of RebC or RebD was 0.001 or 0.01% was added to the cells.
Background: ELISA stands for enzyme-linked immunosorbent assay.

Where [1] appears, read: Example 4, steviol glycoside alone, 0.001 to 0.1% (RebC, RebD 0.001 or 0.01%).
Where [2] appears, read: Table 3, steviol glycoside 0.01% alone.
The mark [3] stands for this setting: Table 4, steviol glycoside 0.01% alone.
[4] abbreviates: Table 5, final concentration 0.001%.
[5] abbreviates: Table 5, final concentration 0.01%.
Setting [6] is: Table 5, final concentration 0.1%.
Setting [7] is: steviol glycoside alone at a concentration of 0.01%.

For the compound `C=C1C[C@@]23CC[C@H]4[C@@](C)(CCC[C@@]4(C)C(=O)O[C@@H]4O[C@H](CO)[C@@H](O)[C@H](O)[C@H]4O)[C@@H]2CC[C@]1(O[C@@H]1O[C@H](CO)[C@@H](O)[C@H](O[C@@H]2O[C@H](CO)[C@@H](O)[C@H](O)[C@H]2O)[C@H]1O[C@@H]1O[C@H](CO)[C@@H](O)[C@H](O)[C@H]1O)C3` [RebA, rebaudioside A], the “GLP-1 secretion-accelerating action (in words)” value by setting is: under setting [1], “GLP-1 secretion-accelerating action can be obtained”; under setting [7], “not accelerated”. For the same compound, the “Amount of Active GLP-1 (relative amount to control as 100), average value” under setting [2] is given as 72.6; the “Amount of Active GLP-1 (relative amount to control as 100), average value” under setting [3] turned out to be 72.6; the “Amount of Active GLP-1 (relative amount to control as 100), average value” under setting [4] is 92.8; the “Amount of Active GLP-1 (relative amount to control as 100), average value” under setting [5] came to 129.3; the “Amount of Active GLP-1 (relative amount to control as 100), average value” under setting [6] was determined as 150.9.

As to “cyclo(leucyl-phenylalanine) [Cyclo(Leu-Phe)]”, the “Amount of Active GLP-1 (relative amount to control as 100), average value” was found to be 65.1 (Table 3, Cyclo(Leu-Phe) 0.02 μg/mL alone); 59.9 (Table 3, Cyclo(Leu-Phe) 2 μg/mL alone); 59.9 (Table 4, head prints Cyclo(Leu-Phe) 1 μg/mL alone).

On to `C=C1C[C@@]23CC[C@H]4[C@@](C)(CCC[C@@]4(C)C(=O)O[C@@H]4O[C@H](CO)[C@@H](O)[C@H](O)[C@H]4O[C@@H]4O[C@H](CO)[C@@H](O)[C@H](O)[C@H]4O)[C@@H]2CC[C@]1(O[C@@H]1O[C@H](CO)[C@@H](O)[C@H](O[C@@H]2O[C@H](CO)[C@@H](O)[C@H](O)[C@H]2O)[C@H]1O[C@@H]1O[C@H](CO)[C@@H](O)[C@H](O)[C@H]1O)C3` [RebD, rebaudioside D], for which the “GLP-1 secretion-accelerating action (in words)” value was “GLP-1 secretion-accelerating action can be obtained” under setting [1] and “not accelerated” under setting [7]. Further, the “Amount of Active GLP-1 (relative amount to control as 100), average value” reads like this: under setting [4], 63.1; under setting [5], 170.0.

For the compound rebaudioside B [RebB], the “GLP-1 secretion-accelerating action (in words)” value under setting [1] was “GLP-1 secretion-accelerating action can be obtained”. The “Amount of Active GLP-1 (relative amount to control as 100), average value” is, setting by setting: under setting [4], 82.0; under setting [5], 70.5; under setting [6], 151.2.

As for `OC[C@H]1O[C@H](O[C@]2(CCl)O[C@H](CCl)[C@@H](O)[C@@H]2O)[C@H](O)[C@@H](O)[C@H]1Cl` [Sucralose, sucralose], the “Amount of active GLP-1, relative value (control regarded as 100), average value” (“Amount of active GLP-1, relative value” below) was determined as 206 (Table 1, sucralose 0.6% alone) and 233 (Table 2, sucralose 0.6% alone).

With `COC(=O)[C@H](Cc1ccccc1)NC(=O)[C@@H](N)CC(=O)O` [Aspartame, aspartame] (H-Asp-Phe-OMe), the “Amount of active GLP-1, relative value” by setting is: (Table 1, aspartame 0.3% alone) 112; (Table 2, aspartame 0.3% alone) 129.

Take cyclo(glycyl-tyrosine) [Cyclo(Gly-Tyr)]: the “Amount of Active GLP-1 (relative amount to control as 100), average value” (Table 4, Cyclo(Gly-Tyr) 0.01 μg/mL alone) was determined as 65.1.

In the case of `C=C1C[C@@]23CC[C@H]4[C@@](C)(CCC[C@@]4(C)C(=O)O[C@@H]4O[C@H](CO)[C@@H](O)[C@H](O)[C@H]4O)[C@@H]2CC[C@]1(O[C@@H]1O[C@H](CO)[C@@H](O)[C@H](O)[C@H]1O[C@@H]1O[C@H](CO)[C@@H](O)[C@H](O)[C@H]1O)C3` [Stevioside, stevioside], the “GLP-1 secretion-accelerating action (in words)” value runs as follows: under setting [1], “GLP-1 secretion-accelerating action can be obtained”; under setting [7], “not accelerated”. Also, the “Amount of Active GLP-1 (relative amount to control as 100), average value” under setting [2] was determined as 62.7; the “Amount of Active GLP-1 (relative amount to control as 100), average value” under setting [3] stood at 62.7; the “Amount of Active GLP-1 (relative amount to control as 100), average value” under setting [4] was 104.9; the “Amount of Active GLP-1 (relative amount to control as 100), average value” under setting [5] is given as 91.3; the “Amount of Active GLP-1 (relative amount to control as 100), average value” under setting [6] was determined as 160.9.

Consider `CC1=CC(=O)NS(=O)(=O)O1` [Acesulfame K, acesulfame potassium], for which the “Amount of active GLP-1, relative value” (Table 1, acesulfame K 0.3% alone) is given as 125 and the “Amount of active GLP-1, relative value” (Table 2, acesulfame K 0.3% alone) is recorded as 145.

rebaudioside C [RebC]: the “GLP-1 secretion-accelerating action (in words)” value under setting [1] is listed as “GLP-1 secretion-accelerating action was not observed”. Also, the “Amount of Active GLP-1 (relative amount to control as 100), average value” was 52.8 under setting [4] and 55.0 under setting [5].
